Experimental data published in ChEMBL document CHEMBL3885861, “Open TG-GATES”.

Species: Rattus norvegicus
Experiment: Open TG-GATES - Regimen: Single
Format: toxicity, organism-based, Sprague-Dawley
Parameters: regimen Single, gender Male, age 6 weeks
Conditions: in vivo, po, 0 mg/kg, route gavage, dose level Control; for APTT / Bas / Eos / Fbg / Hb / Ht / Lym / MCH / MCHC / MCV / Mono / Neu / PT / Plat / RBC / Ret / WBC: tissue Blood; for KIDNEY_L / KIDNEY_R / KIDNEY_TOTAL: tissue Kidney; for LIVER: tissue Liver; for A/G / ALP / ALT / AST / BUN / CRE / Ca / Cl / DBIL / GLC / IP / K / LDH / Na / PL / RALB / TBIL / TC / TG / TP / gamma-GTP: tissue Plasma

SMILES: CN1C(C(=O)Nc2ccccn2)=C(O)c2sc(Cl)cc2S1(=O)=O [LORNOXICAM]
- TERMINAL_BW (3 h): 223 g
- APTT (3 h): 20 s
- Bas (3 h): 1%
- Eos (3 h): 1.4%
- Fbg (3 h): 213.2 mg/dL
- Hb (3 h): 13.4 g/dL
- Ht (3 h): 39.7%
- Lym (3 h): 78.8%
- MCH (3 h): 21 pg
- MCHC (3 h): 33.8%
- MCV (3 h): 62.2 fL
- Mono (3 h): 2.8%
- Neu (3 h): 16.4%
- PT (3 h): 11.9 s
- Plat (3 h): 135.7 x10_4/uL
- RBC (3 h): 638 x10_4/ul
- Ret (3 h): 6.8%
- WBC (3 h): 93 x10_2/uL
- KIDNEY_L (3 h): 1 g
- KIDNEY_R (3 h): 1 g
- KIDNEY_TOTAL (3 h): 2 g
- LIVER (3 h): 10.1 g
- A/G (3 h): 1.7
- ALP (3 h): 1010.4 IU/L
- ALT (3 h): 36.2 IU/L
- AST (3 h): 73 IU/L
- BUN (3 h): 11.8 mg/dL
- CRE (3 h): 0.4 mg/dL
- Ca (3 h): 10.5 mg/dL
- Cl (3 h): 103.4 meq/L
- DBIL (3 h): 0.076 mg/dL
- GLC (3 h): 197.2 mg/dL
- IP (3 h): 8.6 mg/dL
- K (3 h): 3.7 meq/L
- LDH (3 h): 168 IU/L
- Na (3 h): 141.4 meq/L
- PL (3 h): 133.4 mg/dL
- RALB (3 h): 3.5 g/dL
- TBIL (3 h): 0.1 mg/dL
- TC (3 h): 71.2 mg/dL
- TG (3 h): 80 mg/dL
- TP (3 h): 5.5 g/dL
- gamma-GTP (3 h): 1.4 IU/L
- TERMINAL_BW (6 h): 219.8 g
- APTT (6 h): 19.8 s
- Bas (6 h): 0.8%
- Eos (6 h): 1%
- Fbg (6 h): 221.2 mg/dL
- Hb (6 h): 13.2 g/dL
- Ht (6 h): 39.3%
- Lym (6 h): 81.2%
- MCH (6 h): 20.9 pg
- MCHC (6 h): 33.6%
- MCV (6 h): 62.1 fL
- Mono (6 h): 2.6%
- Neu (6 h): 14.2%
- PT (6 h): 12 s
- Plat (6 h): 119.7 x10_4/uL
- RBC (6 h): 632.4 x10_4/ul
- Ret (6 h): 7.2%
- WBC (6 h): 109.1 x10_2/uL
- KIDNEY_L (6 h): 0.9 g
- KIDNEY_R (6 h): 1 g
- KIDNEY_TOTAL (6 h): 1.9 g
- LIVER (6 h): 9.6 g
- A/G (6 h): 1.6
- ALP (6 h): 765.4 IU/L
- ALT (6 h): 33.4 IU/L
- AST (6 h): 68.8 IU/L
- BUN (6 h): 11 mg/dL
- CRE (6 h): 0.4 mg/dL
- Ca (6 h): 10.4 mg/dL
- Cl (6 h): 103 meq/L
- DBIL (6 h): 0.066 mg/dL
- GLC (6 h): 196.8 mg/dL
- IP (6 h): 9.1 mg/dL
- K (6 h): 3.9 meq/L
- LDH (6 h): 209.2 IU/L
- Na (6 h): 140.8 meq/L
- PL (6 h): 146 mg/dL
- RALB (6 h): 3.4 g/dL
- TBIL (6 h): 0.1 mg/dL
- TC (6 h): 84.8 mg/dL
- TG (6 h): 64.8 mg/dL
- TP (6 h): 5.6 g/dL
- gamma-GTP (6 h): 0.8 IU/L
- TERMINAL_BW (9 h): 218.6 g
- APTT (9 h): 20.3 s
- Bas (9 h): 0.8%
- Eos (9 h): 0.8%
- Fbg (9 h): 230.6 mg/dL
- Hb (9 h): 13.3 g/dL
- Ht (9 h): 39.8%
- Lym (9 h): 74.4%
- MCH (9 h): 20.9 pg
- MCHC (9 h): 33.4%
- MCV (9 h): 62.7 fL
- Mono (9 h): 3.2%
- Neu (9 h): 20.4%
- PT (9 h): 12.5 s
- Plat (9 h): 119.2 x10_4/uL
- RBC (9 h): 634.2 x10_4/ul
- Ret (9 h): 7.6%
- WBC (9 h): 126.9 x10_2/uL
- KIDNEY_L (9 h): 1 g
- KIDNEY_R (9 h): 1 g
- KIDNEY_TOTAL (9 h): 1.9 g
- LIVER (9 h): 9.3 g
- A/G (9 h): 1.7
- ALP (9 h): 766.8 IU/L
- ALT (9 h): 33.2 IU/L
- AST (9 h): 65.4 IU/L
- BUN (9 h): 9.8 mg/dL
- CRE (9 h): 0.3 mg/dL
- Ca (9 h): 10.5 mg/dL
- Cl (9 h): 103.6 meq/L
- DBIL (9 h): 0.076 mg/dL
- GLC (9 h): 197.8 mg/dL
- IP (9 h): 9.6 mg/dL
- K (9 h): 3.8 meq/L
- LDH (9 h): 162.2 IU/L
- Na (9 h): 142.2 meq/L
- PL (9 h): 136.8 mg/dL
- RALB (9 h): 3.5 g/dL
- TBIL (9 h): 0.1 mg/dL
- TC (9 h): 75.2 mg/dL
- TG (9 h): 60.6 mg/dL
- TP (9 h): 5.6 g/dL
- gamma-GTP (9 h): 1.2 IU/L
- TERMINAL_BW (24 h): 238.4 g
- APTT (24 h): 19.9 s
- Bas (24 h): 0.2%
- Eos (24 h): 1%
- Fbg (24 h): 225.8 mg/dL
- Hb (24 h): 13.5 g/dL
- Ht (24 h): 40.7%
- Lym (24 h): 80%
- MCH (24 h): 20.9 pg
- MCHC (24 h): 33.3%
- MCV (24 h): 62.6 fL
- Mono (24 h): 3.2%
- Neu (24 h): 15.2%
- PT (24 h): 11.6 s
- Plat (24 h): 133.9 x10_4/uL
- RBC (24 h): 649.4 x10_4/ul
- Ret (24 h): 6.8%
- WBC (24 h): 101.7 x10_2/uL
- KIDNEY_L (24 h): 1 g
- KIDNEY_R (24 h): 1 g
- KIDNEY_TOTAL (24 h): 2 g
- LIVER (24 h): 11.3 g
- A/G (24 h): 1.6
- ALP (24 h): 874.6 IU/L
- ALT (24 h): 35.2 IU/L
- AST (24 h): 65.8 IU/L
- BUN (24 h): 14.8 mg/dL
- CRE (24 h): 0.4 mg/dL
- Ca (24 h): 10.8 mg/dL
- Cl (24 h): 103.8 meq/L
- DBIL (24 h): 0.1 mg/dL
- GLC (24 h): 218 mg/dL
- IP (24 h): 7.3 mg/dL
- K (24 h): 4 meq/L
- LDH (24 h): 177.6 IU/L
- Na (24 h): 141.4 meq/L
- PL (24 h): 138.4 mg/dL
- RALB (24 h): 3.5 g/dL
- TBIL (24 h): 0.2 mg/dL
- TC (24 h): 69.2 mg/dL
- TG (24 h): 101.2 mg/dL
- TP (24 h): 5.6 g/dL
- gamma-GTP (24 h): 1 IU/L
